Assay results as given in PubChem BioAssay (NCI).
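A five-concentration, 48-hour dose response in 96-well plates underlies each endpoint, interpolated linearly between surrounding concentrations. Abbreviation: GI50, concentration required for 50% inhibition of growth. TGI: concentration producing complete growth inhibition.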

Columns and labels:
Assay in all cases: growth of human tumour cells (NCI), 48 h
[1] = tested on: SK-MEL-2 melanoma
[2] = tested on: EKVX NSCLC
[3] = tested on: HS 578T breast
[4] = tested on: SK-OV-3 ovarian
[5] = tested on: UACC-62 melanoma
[6] = tested on: RXF 393 renal
[7] = tested on: DU-145 prostate
[8] = tested on: MDA-MB-435
[9] = tested on: SF-268 CNS

Compound | GI50 [1] | TGI [1] | GI50 [2] | TGI [2] | GI50 [3] | TGI [3] | GI50 [4] | TGI [4] | GI50 [5] | TGI [5] | GI50 [6] | TGI [6] | GI50 [7] | TGI [7] | GI50 [8] | TGI [8] | GI50 [9] | TGI [9]
NC(N)=N/N=C\c1ccc(OCc2ccccc2)cc1 | 1.74 µM | 3.38 µM | 7.37 µM | 24.2 µM | 1.75 µM | 4.81 µM | 3.47 µM | 14.7 µM | 1.57 µM | 3.4 µM | 1.79 µM | 4.26 µM | 2.71 µM | 8.45 µM | 1.68 µM | 4.1 µM | 3.47 µM | 17.4 µM
CCCCCCCC/C=C/CCCCCCCC1=NC(C)(C)CN1C(C)(C)CO | 1.76 µM | 3.67 µM | 1.53 µM | 4.36 µM | 1.84 µM | 3.9 µM | 14.4 µM | 29.3 µM | 1.82 µM | 3.47 µM | 2.17 µM | 3.99 µM | 1.86 µM | 3.32 µM | 1.72 µM | 3.26 µM | 2.01 µM | 3.84 µM
Cn1c(COC(=O)NCCc2ccccn2)nc2c(N3CCOCC3)nc(Cl)nc21 | 1.88 µM | 3.81 µM | 1.7 µM | 3.7 µM | 2 µM | 6.22 µM | 12 µM | 24.3 µM | 1.65 µM | 3.29 µM | 1.06 µM | 2.45 µM | 1.59 µM | 3.11 µM | 1.46 µM | 3.46 µM | 1.52 µM | 3.11 µM
NCCO/C=C/C(N)C(=O)O (stereo not given) |  | > 100 µM |  | > 100 µM |  | > 100 µM |  | > 100 µM |  | > 100 µM |  | > 100 µM |  | > 100 µM |  | > 100 µM |  | > 100 µM
Cc1cc(Cl)ccc1NC(=O)CCCC(=O)C1C/C(=N/O)CC/C1=N\O (stereo not given) |  | > 100 µM |  | > 100 µM |  |  |  | > 100 µM |  | > 100 µM |  |  |  |  |  |  |  | > 100 µM
O=c1c(Cc2ccc3c(c2)OCO3)nnc2sc(-c3cc(F)c(Cl)cc3Cl)nn12 |  |  |  |  |  |  |  |  | 75.8 µM | > 100 µM | 42.7 µM | > 100 µM |  |  | 52.9 µM | > 100 µM | 41.7 µM | > 100 µM
COc1c2ccoc2nc2c(OC)c(OCC(O)C(C)(C)O)ccc12 (stereo not given) |  | > 100 µM |  | > 100 µM |  | > 100 µM |  | > 100 µM |  | > 100 µM |  |  |  | > 100 µM |  | > 100 µM |  | > 100 µM
CCOC(=O)Nc1ccc2nc(-c3cscn3)[nH]c2c1 | 3.25 µM | > 100 µM |  |  | 8.3 µM | 92.6 µM | 3.61 µM | 29.8 µM | 4.08 µM | > 100 µM | 2.41 µM | 13.6 µM | 9.61 µM | > 100 µM | 0.398 µM | 1.93 µM | 18 µM | > 100 µM
C1=CC(=P(c2ccccc2)(c2ccccc2)c2ccccc2)C=C1 |  | 30.3 µM |  | 82.5 µM |  |  |  | 35.3 µM |  | 20 µM |  | 28.2 µM |  |  |  |  |  | 75.1 µM
CC1=NN(c2cccc(Cl)c2)C(=O)/C1=C\c1cn(CC(O)CN2CCCCC2)c2ccccc12 (stereo not given) | 10.3 µM | 24.7 µM | 11.1 µM | 25.9 µM | 6.14 µM | 33.6 µM | 12.9 µM | 26.6 µM | 2.17 µM | 4.9 µM | 4.97 µM | 17.5 µM | 10.4 µM | 23.2 µM | 1.89 µM | 3.74 µM | 10.1 µM | 24.9 µM
Clc1ccccc1C(Nc1cnccn1)Nc1cnccn1 |  | > 100 µM |  | > 100 µM |  | > 100 µM |  | > 100 µM |  | > 100 µM |  | > 100 µM |  | > 100 µM |  | > 100 µM |  | > 100 µM
O=C(Nc1ccc(Cl)cc1C(F)(F)F)C(=O)Nn1c(=S)[nH]c2ccccc2c1=O |  | > 100 µM |  |  |  | > 100 µM |  | > 100 µM |  | > 100 µM |  | > 100 µM |  |  |  | > 100 µM |  | > 100 µM
Cc1cc2c(c(C(=O)O)c1C)-c1cccc(Cl)c1C2=O |  | > 100 µM |  | > 100 µM |  |  |  | > 100 µM |  | > 100 µM |  | > 100 µM |  |  |  |  |  | > 100 µM
COc1ccc2c(c1)C(=O)c1c-2c(OCCCN(C)C)nc2cc(Br)ccc12 | 19.1 µM | 36.3 µM | 2.78 µM | 13.5 µM | 3.46 µM | 15.4 µM | 7.28 µM | 22.9 µM | 12.5 µM | 26.4 µM | 1.7 µM | 3.4 µM | 5.91 µM | 18.9 µM | 5.45 µM | 18.1 µM | 2.5 µM | 10.4 µM
CC(C)C[C@@H](N)[C@@H](O)C(=O)N[C@H](C(=O)N[C@H](C(=O)N[C@@H](CC(=O)O)C(=O)O)C(C)C)C(C)C | > 20 µM | > 20 µM | > 20 µM | > 20 µM | > 20 µM | > 20 µM | > 20 µM | > 20 µM | > 20 µM | > 20 µM |  |  | > 20 µM | > 20 µM | > 20 µM | > 20 µM | > 20 µM | > 20 µM
